Columns and labels:
tubulin = assay: HTS-Tubulin Polymerization Assay Kit, tubulin polymerization in vitro; format: biochemical; settings: 1 μM solution, 10 μL + 100 μL 4 mg/ml tubulin, 37° C., 405 nm; compared with the PBS buffer (FIG. 6)
Description: According to the instruction of kit, pre-warm the 96-well plate to 37° C. for 30 min prior to starting the assay. At the same time, the spectrophotometer (SpectraMax, Molecular Devices, USA) was set as follow: wavelength, 405 nm; temperature, 37° C.; Kinetic, 31 cycles of 1 reading per minute. Make cold G-PEM buffer (990 μL General Tubulin Buffer+10 μL GTP Stock) and keep it on ice. […] Immediately place the plate into the spectrophotometer and start recording using the kinetic setup described above. […] Nocodazole, the tubulin polymerization inhibitor, was set as a negative control. The metabolite Cys-3AA-MDC was prepared by reaction of 3AA-MDC with cysteine under the base DIEA in CH2Cl2. LC-MS (M+H^+) calc.: 964.5. found: 964.2. Rt: 12.97 min. The metabolite Lys-MCC-MDC was prepared by reaction of SMCC-MDC with lysine under the base DIEA in DMF. LC-MS (M+H^+) calc.: 1103.7. found: 1103.2. Rt: 13.00 and 13.18 min.

[1] = tested on: multiple cancer cell lines; settings: cited from earlier work
[2] = tested on: Lewis lung carcinoma and B-16 melanocarcinoma solid murine tumor models; settings: mouse, in vivo; cited from earlier work
[3] = tested on: human acute lymphoblastic leukemia line C.E.M.; settings: cited from earlier work

SMILES	inhibition of tubulin polymerization (tubulin)	other results
COc1cc2cc(c1Cl)N(C)C(=O)C[C@H](OC(=O)[C@H](C)N(C)C(=O)CCCCCN1C(=O)C=CC1=O)[C@]1(C)OC1[C@H](C)[C@@H]1C[C@@](O)(NC(=O)O1)[C@H](OC)/C=C/C=C(\C)C2 (stereo partly drawn) [3AA-MDC, N2′-deacetyl-N2′-(6-maleimido-1-oxo-hexyl)maytansine]	more significantly inhibited the tubulin polymerization	
COc1cc2cc(c1Cl)N(C)C(=O)C[C@H](OC(=O)C(C)C)[C@]1(C)O[C@@H]1[C@H](C)[C@@H]1C[C@@](O)(NC(=O)O1)[C@H](OC)/C=C/C=C(\C)C2 [Ansamitocin P3]		efficacy against cancer cell lines [1]: effective against multiple cancer cell lines
CN[C@@H](C)C(=O)OC1CC(=O)N(C)c2cc(cc(OC)c2Cl)C/C(C)=C/C=C/C(OC)C2(O)CC(OC(=O)N2)C(C)C2OC12C (stereo partly drawn) [Cys-3AA-MDC]	more significantly inhibited the tubulin polymerization	
COc1cc2cc(c1Cl)N(C)C(=O)C[C@H](OC(=O)[C@H](C)N(C)C(=O)CCSC1CC(=O)N(CC3CCC(C(=O)NCCCC[C@H](N)C(=O)O)CC3)C1=O)[C@]1(C)O[C@H]1[C@H](C)[C@@H]1C[C@@](O)(NC(=O)O1)[C@H](OC)/C=C/C=C(\C)C2 (stereo partly drawn) [Lys-mcc-MDC]	more significantly inhibited the tubulin polymerization	
COc1cc2cc(c1Cl)N(C)C(=O)C[C@H](OC(=O)[C@H](C)N(C)C(C)=O)[C@]1(C)O[C@H]1[C@H](C)[C@@H]1C[C@@](O)(NC(=O)O1)[C@H](OC)/C=C/C=C(\C)C2 [Maytansine]		inhibitory activity against tumors [2]: significant inhibitory activity; inhibitory concentration, as low as [3]: ≥ 10^−7 μg/mL
